How the values were obtained:
[1] = system: bio-artificial tissues (F-actin network); experiment: Tissue indentation device: force-time and longitudinal force-strain curves (Example 15); assay type: cell-based
Protocol: (§1) Bio-artificial tissues were generated by mixing cells and neutralized collagen, as described elsewhere (Wakatsuki et al., 2000, Biophys. J. 79:2353-2368). Briefly, cells were mixed with neutralized rat-tail collagen (Millipore Billerica, Mass.) and media containing 10% Fetal Bovine Serum (FBS). 200-250[…]1 of this solution is poured into wells as described below. The tissues are cultured in Dulbecco's modified Eagle's medium (DMEM) supplemented with 10% FBS and antibiotics (penicillin and streptomycin) in an incubator for two or three days. The bio-artificial tissue membrane was stretched using a mechanical testing device is (as detailed below). During the mechanical measurements, culture medium was switched to a HEPES-buffered DMEM, pH 7.4, and maintained at 37° C.
A chamber to hold 8 bio-artificial tissues was machined from a polycarbonate bar (25×60×10 mm) using a tabletop CNC mill (Sherline Products Inc., Vista, Calif.). The 8 square wells of 8×8 mm contained 2 horizontal stainless-steel (medical grade) bars (1 mm diameter) which centers were located 2 mm above bottom and 2 mm beside each wall and were 4 mm apart (FIG. 29A). A microscope cover-slip (No. 1 thickness, Fisher brand) sealed the bottom of wells using silicon glue (Dow chemicals) to facilitate microscopic imaging of cells and bio-artificial tissues. […]
The mechanical testing device is depicted in FIG. 29A. […] The linear actuators were controlled simultaneously by a personal computer that also recorded the signal generated by the force transducer. […]
While the force-probe indents the bio-artificial tissues vertically at a constant rate, ν (0.5 mm/sec), an isometric force transducer connected to the force probe recorded a resistance force, F(t). A time dependent change in bio-artificial tissues-membrane force in the longitudinal direction, T(t), was calculated from F(t) by a trigonometric relationship (FIG. 28). This rate of indentation was determined to achieve a minimum noise-level by the current device arrangement. […]

[2] = system: bio-artificial tissues including chicken embryo fibroblasts; experiment: Tissue indentation device: stiffness and active cell force after CD (Example 16); assay type: cell-based
Protocol: as §1
Cells used in this study included: (1) rat embryo fibroblasts (REF52 cell line) maintained in DMEM supplemented with 10% FBS split once a week (kind gift from Dr. Wysolmerski, Department of Neurobiology and Anatomy, West Virginia University School of Medicine), (2) chicken embryo fibroblasts (CEFs) isolated from 10 day old chicken embryos using a previously described protocol (Wakatsuki et al., 2000, Biophys. J. 79(5):2353-2368) maintained in DMEM supplemented with 3% FBS (passage 2 to 5), and (3) smooth muscle cells (SMC) isolated from adult rat aorta using a previously described protocol (Griendling et al., 1991, J. Biol. Chem. 266(23):15498-15504) cultured in DMEM supplemented with 10% FBS and 1% […] (passage 10-12).
A chamber to hold 8 bio-artificial tissues was machined from a polycarbonate bar (25×60×10 mm) using a tabletop CNC mill (Sherline Products Inc., Vista, Calif.). The 8 square wells of 8×8 mm contained 2 horizontal stainless-steel (medical grade) bars (1 mm diameter) which centers were located 2 mm above bottom and 2 mm beside each wall and were 4 mm apart (FIG. 29A). A microscope cover-slip (No. 1 thickness, Fisher brand) sealed the bottom of wells using silicon glue (Dow chemicals) to facilitate microscopic imaging of cells and bio-artificial tissues. A pre-polymerized solution of bio-artificial tissues was poured into the wells until the horizontal bars became immersed to half of its depth. During tissue culture, the solution gelled and entrapped cells that remodeled and compacted the gel (Tranquillo, 1999, Biochem. Soc. Symp. 65:27-42) by cell traction force. By the next day, the bio-artificial tissues detached from the bottom and side wall to form a membrane spanning between the two bars. The bio-artificial tissues stiffened to form a thin layer of tissue overlaying the bars and generated active tension within the bio-artificial tissues. The chambers were sterilized by UV before usage and kept in a 100 mm sterile Petri dish to avoid any contamination.
The mechanical testing device is depicted in FIG. 29A. A horizontal linear actuator (FIG. 29A-a, ER32-SRN300A, Parker, Wadsworth, Ohio) automatically places the center of each well at right angles below a force-probe (FIG. 29A-c). The bottom of L-shaped probe indents and bends the bio-artificial tissues at the middle (FIG. 29D). The other end of the probe is connected to an isometric force transducer (FIG. 29A-b, model 52-9545, Harvard Apparatus, South Natick, Mass.) and moved by a vertical linear actuator (FIG. 29A-a, ER32-SRN100A, Parker, Wadsworth, Ohio). During the tests, the temperature of bio-artificial tissues in the wells was maintained at 37° C. using a water jacketed warm plate (FIG. 29A-e) connected to a circulating water bath (HAAKE C10-P5, Thermo Fisher Scientific, Inc. Waltham, Mass.). The linear actuators were controlled simultaneously by a personal computer that also recorded the signal generated by the force transducer. The bio-artificial tissues can be quickly placed in a holder at its designated position for mechanical measurements. A time dependent function to lengthen and shorten bio-artificial tissues was predetermined using the computer software of the device. […]

## C=C1[C@@H](C)[C@H]2[C@H](Cc3ccccc3)NC(=O)[C@]23[C@H](OC(C)=O)/C=C/[C@@](C)(O)C(=O)[C@@H](C)C/C=C/[C@H]3[C@@H]1O [CD, cytochalasin D]
[1]; 90 nM CD
  pre-force σ0A (minimum force) compared to untreated control: reduced levels
[1]; 90 nM and 2 μM CD
  resistance force F(t) while stretching the membrane: less resistance force
[1]; 2 μM CD
  pre-force σ0A (minimum force) compared to untreated control: reduced levels
[2]; 200 pM to 2 μM CD, two hours post-treatment
  pre-force (active cell force, CD treatment over control): concentration-dependent reduction
[2]; [CD] 0.2 nM
  EACD/EACT (ratio of post- over pre- CD treated stiffness): 0.932 ± 0.013
  zCD-zCT (difference in sample surface height between post- and pre- CD treated samples): −8.925 ± 9.257 μm
[2]; [CD] 0.9 nM
  EACD/EACT (ratio of post- over pre- CD treated stiffness): 0.938 ± 0.016
  zCD-zCT (difference in sample surface height between post- and pre- CD treated samples): −21.761 ± 8.982 μm
[2]; [CD] 4 nM
  EACD/EACT (ratio of post- over pre- CD treated stiffness): 0.986 ± 0.015
  zCD-zCT (difference in sample surface height between post- and pre- CD treated samples): −23.707 ± 13.222 μm
[2]; [CD] 20 nM
  EACD/EACT (ratio of post- over pre- CD treated stiffness): 0.979 ± 0.013
  zCD-zCT (difference in sample surface height between post- and pre- CD treated samples): 4.550 ± 7.653 μm
[2]; [CD] 90 nM
  EACD/EACT (ratio of post- over pre- CD treated stiffness): 0.970 ± 0.016
  zCD-zCT (difference in sample surface height between post- and pre- CD treated samples): −22.054 ± 12.989 μm
[2]; [CD] 400 nM
  EACD/EACT (ratio of post- over pre- CD treated stiffness): 0.964 ± 0.021
  zCD-zCT (difference in sample surface height between post- and pre- CD treated samples): −17.607 ± 6.533 μm
[2]; [CD] 2000 nM
  EACD/EACT (ratio of post- over pre- CD treated stiffness): 1.077 ± 0.050
  zCD-zCT (difference in sample surface height between post- and pre- CD treated samples): −35.318 ± 15.189 μm
[2]; after the CD treatment
  EA (mechanical properties of extracellular matrix): did not change at all

— patent publication US8227240B2, “Systems for screening pharmaceutical chemicals” (The Washington University, priority 2001, dated 2012)
